Results on 2 compounds are retold here after US20180136227A1, “Treatment and Diagnosis of Hereditary Xerocytosis” (Universite d'aix Marseille, priority 2015, published 2018).

For data set [1] the following is noted: Sickle Cell disease, Ataga et al., 2011; cited from earlier work.
Data set [2] relates to control red blood cells with WT Gardos channels. Kind of data set: Vanadate-induced K+ loss and water loss in control red blood cells. It is filed as cell-based, human. The procedure:
Red blood cell cation content and volume measurements: Freshly drawn blood was washed 4 times at room temperature in medium containing in mM: NaCl 147, KCl 5, MgSO4 2, CaCl2 1, Hepes 10, buffered with NaOH pH 7.4 (320 mOsm). […] A few minutes before sampling time, 400 μl of cell suspension was taken to fill 3 nylon tubes that were centrifuged for 10 minutes at 4° C., 20,000. g at the exact sampling time. The supernatant was collected for extracellular ion content measurements. The pellet of red cells was extracted and immediately weighted. Then, dry weight was measured after overnight heating (80° C.). Water content was calculated with a correction of 3.64% corresponding to trapped medium between packed cells. Intracellular ions were extracted from dried pellets by overnight incubation at 4° C. in 5 ml milliRho water (Millipore). Na^+ and K^+ were measured by flame spectroscopy with a PFP7 Jenway. Statistics: Mann and Whitney test was used to compare control versus patient or control versus inhibitor in red blood cell experiments.

For a further data set, the system named is control red blood cells. Nature of the data set: Osmotic fragility test in hypotonic saline, control red blood cells. As to conditions: for hemolysis induced before the osmotic test: blood incubation 25 hours, control red blood cells.

Molecules are shown by their SMILES.

As to `NC(=O)C(c1ccccc1)(c1ccc(F)cc1)c1ccc(F)cc1` [Senicapoc, bis(4-fluorophenyl)phenyl acetamide], in data set [1], the “toxicity in phase III study” value is on record as “non-toxic”. Moreover, in data set [2] (Homo sapiens, Erythrocyte, 1 h), the inhibition (in general, how much of the control response was suppressed) at 0.4 µM was determined as 84 ± 4% and the inhibition at 4 µM turned out to be 95 ± 4%. In addition, the “hemolysis induced before the osmotic test” value in the data set with control red blood cells (Senicapoc 4 or 0.4 μM) is “not observed”. For the same compound, the “effect on osmotic resistance” value in the data set with control red blood cells (Senicapoc 4 or 0.4 μM, blood stored 25 hours at 4° C., control) is recorded as “no effect”.
`Clc1ccccc1C(c1ccccc1)(c1ccccc1)n1cccn1` [TRAM-34, 1-[(2-Chlorophenyl)diphenylmethyl]-1H-pyrazole]: in data set [2] (Homo sapiens, Erythrocyte, 1 h, read-out: inhibition of K+ loss), the inhibition at 10 µM worked out at 97 ± 1%. Further, in data set [2] (TRAM-34 10 μM, 5 mM vanadate, red blood cells with WT Gardos channels), the “effect on K+ loss and cell water loss” value was “able to reduce”. The “hemolysis induced before the osmotic test” value with control red blood cells (TRAM-34 10 μM) is recorded as “strong hemolysis”.
